We go through 14 compounds from patent EP4818163A1, “POLYCYCLIC COMPOUND AND USE THEREOF” (Zhejiang Jingke Pharmaceuticals Co., Ltd., priority 2023, dated 2025).

Usually IC50 stands for the point on the concentration scale where inhibition reaches its midpoint. A word on the AUC: it is concentration integrated over time. A lower AUC goes with less exposure. Broadly, the Cmax is the peak of the concentration-time curve.

One data set deals with c-Kit kinase (Homo sapiens, UniProt P10721). The experiment in a line: Enzyme activity assay (c-Kit kinase). The class given is biochemical. As for the experimental part: Biological activity tests were performed on partial compounds synthesized in the above examples and comparative examples below. […]
Chain of c-Kit kinase (P10721 26-976): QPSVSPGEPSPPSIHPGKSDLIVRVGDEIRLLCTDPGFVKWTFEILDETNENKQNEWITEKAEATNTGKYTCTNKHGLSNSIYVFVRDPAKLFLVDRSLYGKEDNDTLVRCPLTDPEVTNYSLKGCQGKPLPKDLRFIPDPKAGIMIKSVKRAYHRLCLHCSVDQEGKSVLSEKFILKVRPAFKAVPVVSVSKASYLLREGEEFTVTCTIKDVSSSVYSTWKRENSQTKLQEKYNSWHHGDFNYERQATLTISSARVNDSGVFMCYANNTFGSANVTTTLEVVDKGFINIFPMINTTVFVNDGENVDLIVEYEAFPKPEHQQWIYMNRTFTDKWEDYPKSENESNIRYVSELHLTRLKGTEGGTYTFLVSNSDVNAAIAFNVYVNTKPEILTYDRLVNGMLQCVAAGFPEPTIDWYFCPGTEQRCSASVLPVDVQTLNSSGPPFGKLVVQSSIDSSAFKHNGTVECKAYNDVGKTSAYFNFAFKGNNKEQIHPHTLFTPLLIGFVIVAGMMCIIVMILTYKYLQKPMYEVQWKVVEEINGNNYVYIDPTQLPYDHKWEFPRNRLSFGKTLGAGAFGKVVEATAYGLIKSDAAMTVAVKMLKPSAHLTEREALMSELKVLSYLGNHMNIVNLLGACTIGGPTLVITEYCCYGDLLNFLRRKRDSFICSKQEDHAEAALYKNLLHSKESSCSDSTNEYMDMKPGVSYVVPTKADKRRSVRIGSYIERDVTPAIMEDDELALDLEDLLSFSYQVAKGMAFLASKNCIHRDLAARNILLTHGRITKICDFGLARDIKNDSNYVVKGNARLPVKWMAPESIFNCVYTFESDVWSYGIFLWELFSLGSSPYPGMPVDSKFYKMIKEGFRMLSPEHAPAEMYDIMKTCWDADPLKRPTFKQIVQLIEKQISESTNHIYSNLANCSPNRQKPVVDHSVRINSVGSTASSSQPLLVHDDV
Data set [1] can be described thus: Brain-penetrating pharmacokinetic test. The data set is classed as in vivo, Sprague-Dawley (SD) rat. To be noted: SD rats, p.o., 10 mg/kg, single administration; for Kp: Sprague-Dawley, rat, brain tissue / plasma, po, read-out: Total drug brain-to-plasma ratio (B/P). How it is done: Administration vehicle: 5% DMSO+10% Solutol HS15+85% normal saline
Formulation preparation process: an appropriate amount of powder was weighed, an appropriate volume of DMSO was added, and the mixture was mixed by vortexing. Subsequently, an appropriate volume of Solutol solution was added and vortexed, then normal saline was added, and the mixture was subjected to vortexing and ultrasonic processing to form a homogeneous and clear formulation solution.
The experimental animals were fed in an animal room. The animal room was equipped with an air-conditioning system, with adequate ventilation, an indoor temperature was maintained at 20-26°C, and a relative humidity was maintained at 40%-70%. Artificial lighting was applied in the animal room, with a 12-hour light/dark cycle (except for working lights turned on during experimental operations and cleaning). The experimental animals had free access to food and water.
The purchased animals were fed normally for at least 3 days, rats with healthy physical conditions were included in the experiment, and each rat was marked with a tail number. Animals in an oral administration group were fasted overnight one day before drug administration, and fed 4 hours after drug administration, with free access to water.
• Administration route: intragastric administration (p.o.) • Administration concentration: 1 mg/mL • Administration dose: 10 mg/kg • Administration volume: 10 mL/kg • Administration frequency: single administration
Before drug administration, a state of the administration formulation was examined, the homogeneity of the formulation was ensured by vortexing, stirring or shaking, and a theoretical administration volume for each SD rat in every group was calculated according to the following formula. Theoretical; administration volume(mL) = (Dose (mg⋅kg^−1))/(Formulation; concentration(mg⋅mL^−1)) × Body; weight(kg) [formula]
The rats were sampled at 1 hour, 2 hours, 4 hours, 6 hours, 8 hours and 24 hours after drug administration.
Plasma: at each time point, 0.25 mL of whole blood was collected from the jugular vein and transferred into a test tube containing an anticoagulant EDTA-K2 (7 µL, 10% EDTA-K2 solution), placed on wet ice, and centrifuged within 1 hour (2,000 g, 2-8°C, 10 minutes), and then, the plasma was taken. The plasma was stored in a pre-chilled centrifuge tube, rapidly frozen in dry ice, and then stored in an ultra-low temperature refrigerator at -60°C or lower until LC-MS/MS analysis.
Cerebrospinal fluid: the rats were euthanized via a carbon dioxide process, and approximately 60 µL of cerebrospinal fluid was collected by puncture. 1 mL syringe was used, with the bevel of the needle facing upward, the needle tip was inserted into the subarachnoid space in a nearly horizontal position, then the needle was fixed, and the cerebrospinal fluid was slowly aspirated. The collected samples were frozen on dry ice within 30 minutes, and then transferred to an environment at -90°C to -60°C.
Brain tissue: cardiac perfusion was performed first, and then the brain tissue was isolated. Under deep terminal anesthesia, approximately 80 mL of normal saline was used for cardiac perfusion, and residual blood in the brain tissue was flushed out of cerebral circulation. The isolated brain tissue was gently rinsed once with ice-cold normal saline, excess water was removed, weighed, and then transferred to a frozen storage environment at -90°C to -60°C.
A quantitative detection method for the test compound was established by using a Shimadzu liquid chromatography system and a Triple Quad TM 6500+AB mass spectrometer. A concentration of a parent drug in a sample was analyzed. Quality control samples were used for variation control over analysis results, and the accuracy of the quality control samples should fall within the range of 80%-120%.
Pharmacokinetic parameters: Tmax, Cmax, AUC (0-t), AUC (0-∞), T1/2, MRT (0-∞), and the like were calculated by using winnonlin Phoenix 8.1.0.3530. […]

Data set [2] is described as follows: Preclinical pharmacokinetic test in rats. The class given is in vivo. To be noted: rat, po; male SD rats, intragastric administration (p.o.), 10 mg/kg, plasma. How it is done:
Healthy adult SD rats, male, aged 6-8 weeks, with a body weight of 200-300 g, purchased from Vital River Company; EDTA-Na2 anticoagulant; and analytical balance, animal weighing scale, magnetic stirrer, refrigerated centrifuge, single-channel manual pipette, and the like.
• 1. Drug preparation: approximately 10 mg of the test sample was accurately weighed and dissolved in 5% DMSO (after conversion), and then 10% solutol HS-15 and 85% normal saline were added. The mixture was subjected to ultrasonic processing and mixed by vortexing to obtain a solution at a concentration of 1 mg/mL, which was freshly prepared before use. 0.2 mL of the sample was transferred into a 1.5 mL centrifuge tube and stored at -80°C for administration solution concentration analysis. • 2. Animal preparation: the rats were fed in rat cages, and fasted (for at least 10 hours) with free access to water one day before the experiment. On the day of experiment, the rats were weighed and marked at the tail respectively. Blank blood samples were collected respectively before drug administration. The blood samples were collected via the tail vein. • 3. Drug administration: • administration route: intragastric administration (p.o.); • administration dose: 10 mg/kg; • administration volume: 10 mL/kg; and • operation procedure: the rat was restrained in an upright position with a left hand wearing bite-resistant gloves, a 16-gauge gavage needle was inserted through the oral cavity into the pharynx and advanced without obvious resistance, and then the drug was then injected into the stomach. • 4. Sample collection: whole blood (0.1 mL) was collected from each test animal before drug administration and at 0.5 hours, 1 hour, 2 hours, 4 hours, 6 hours, 8 hours, 12 hours and 24 hours after drug administration, transferred into EDTA-Na2 anticoagulant tubes, mixed evenly by inverting the tubes 3-4 times, and then centrifuged at 10000 g and 4°C for 5 minutes to separate plasma. The obtained plasma samples were stored at -80°C for later analysis. The blood samples were collected via the tail vein.
Specific operation: the rat was secured in a restrainer to fully expose its tail, the tail was wiped with alcohol to make the surface skin absorb the alcohol, so as to induce obvious venous dilation. A suitable vein was selected from two sides, and the needle was inserted at approximately one-third of the distance from the tail tip. An insulin syringe was used as the injection syringe, the needle was inserted with the bevel facing upward, and the needle was immediately adjusted to a parallel position after piercing the skin. Slight sliding resistance of the needle inside the vessel and blood reflux in the injection syringe indicated successful venous access. Approximately 0.1-0.2 mL of whole blood was drawn. Gentle compression was applied for hemostasis after needle removal.
Preparation of standard curve sample: 25 µL of blank rat plasma was transferred into a centrifuge tube respectively, 25 µL of prepared serial standard solution (prepared in methanol) was added, and then 200 µL of internal standard solution (prepared in methanol) was added. The mixture was mixed by vortexing for 2 minutes, and centrifuged at 10000 g and 4°C for 10 minutes.
Treatment of the unknown plasma sample: 25 µL of drug-containing rat plasma was collected respectively, and then 25 µL of methanol and 200 µL of internal standard solution were added sequentially. The mixture was mixed by vortexing for 2 minutes, and centrifuged at 10000 g and 4°C for 10 minutes. The supernatant was collected for LC/MS/MS detection.
A quantitative detection method for the test compound was established by using a Shimadzu liquid chromatography system and a Triple Quad TM 6500+AB mass spectrometer. A concentration of a parent drug in plasma was determined. Plasma concentration-time curves were plotted, and major pharmacokinetic parameters were calculated via a non-compartmental model in winnonlin Phoenix software. […]

Compound `[2H]C([2H])([2H])N1CCN(Cc2ccc(C(=O)Nc3ccc(C)c(Nc4nc(-c5cccnc5)cs4)c3)c(F)c2)CC1` [Compound T-01] displayed an IC50 against c-Kit kinase of 1.67 nM. Besides, in data set [1], the “Total drug concentration in brain tissue” value is 1370.43 ng·h/mL, the “Total drug concentration in plasma” value was 2687.12 ng·h/mL and the Kp stood at 0.51. In data set [2], this compound came in with an AUC of 2690 ng·h/mL and a peak concentration (Cmax) of 419 ng/mL.
In data set [2], `[2H]C([2H])(c1ccc(C(=O)Nc2ccc(C)c(Nc3nc(-c4cccnc4)cs3)c2)cc1)N1CCN(C)CC1` [Compound T-02] had an AUC of 2370 ng·h/mL and a peak concentration (Cmax) of 397 ng/mL.
In the same order, the values of `[2H]C([2H])([2H])N1CCN(C([2H])([2H])c2ccc(C(=O)Nc3ccc(C)c(Nc4nc(-c5cccnc5)cs4)c3)cc2)CC1` [Compound T-04] are 3260 ng·h/mL and 486 ng/mL.
The compound `[2H]C([2H])([2H])N1CCN(C([2H])([2H])c2ccc(C(=O)Nc3ccc(C)c(Nc4nc(-c5cccnc5)cs4)c3)c(F)c2)CC1` [Compound T-08] had an IC50 at c-Kit kinase of 3.89 nM. For the same compound, in data set [1], the “Total drug concentration in brain tissue” value stood at 1798.12 ng·h/mL, the “Total drug concentration in plasma” value turned out to be 3269.32 ng·h/mL and the Kp is 0.55.
For the compound `[2H]C([2H])(c1ccc(C(=O)Nc2ccc(C(F)(F)F)c(Nc3nc(-c4ccc(F)nc4)cs3)c2)cc1)N1CCN(C)CC1` [Compound T-11], 3.55 nM corresponded to half-maximal inhibition at c-Kit kinase (IC50).
On to `[2H]C([2H])(c1ccc(C(=O)Nc2ccc(C(F)(F)F)c(Nc3nc(-c4cccnc4)cs3)c2)cc1)N1CCN(C)CC1` [Compound T-12], for which, on c-Kit kinase, it took 2.13 nM to reach half-maximal inhibition (IC50).
`[2H]C([2H])([2H])N1CCN(C([2H])([2H])c2ccc(C(=O)Nc3ccc(C(F)(F)F)c(Nc4nc(-c5cccnc5)cs4)c3)cc2)CC1` [Compound T-15] returned a 50% inhibitory concentration (IC50) against c-Kit kinase of 3.56 nM.
Take `[2H]C([2H])(c1ccc(C(=O)Nc2ccc(C(F)(F)F)c(Nc3nc(-c4ccc(F)nc4)cs3)c2)c(F)c1)N1CCN(C)CC1` [Compound T-16]: at c-Kit kinase, the IC50 is 2.12 nM. In data set [1], the “Total drug concentration in brain tissue” value is 3129.79 ng·h/mL, the “Total drug concentration in plasma” value turned out to be 4012.56 ng·h/mL and the Kp stood at 0.78. In data set [2], the AUC came to 4010 ng·h/mL and the Cmax worked out at 516 ng/mL.
The compound `[2H]C([2H])([2H])N1CCN(C([2H])([2H])c2ccc(C(=O)Nc3ccc(C(F)(F)F)c(Nc4nc(-c5ccc(F)nc5)cs4)c3)c(F)c2)CC1` [Compound T-17] had an IC50 on c-Kit kinase of 1.35 nM. In data set [2], this compound returned an AUC of 4290 ng·h/mL and a Cmax of 533 ng/mL.
In the same order, the values of `[2H]C([2H])([2H])N1CCN(C([2H])([2H])c2ccc(C(=O)Nc3ccc(C(F)(F)F)c(Nc4nc(-c5cccnc5)cs4)c3)c(F)c2)CC1` [Compound T-18] are 3.12 nM, 4000 ng·h/mL and 501 ng/mL.
Compound `[2H]C([2H])([2H])N1CCN(Cc2ccc(C(=O)Nc3ccc(C(F)(F)F)c(Nc4nc(-c5ccc(F)nc5)cs4)c3)c(F)c2)CC1` [Compound T-19] returned an IC50 on c-Kit kinase of 2.11 nM.
At c-Kit kinase, `[2H]C([2H])([2H])N1CCN(Cc2ccc(C(=O)Nc3ccc(C(F)(F)F)c(Nc4nc(-c5cccnc5)cs4)c3)c(F)c2)CC1` [Compound T-20] registered an IC50 of 2.1 nM. Also, in data set [1], the “Total drug concentration in brain tissue” value was determined as 3092.40 ng·h/mL, the “Total drug concentration in plasma” value was found to be 4123.20 ng·h/mL and the Kp stood at 0.75.
In the same order, the values of `[2H]C([2H])(c1ccc(C(=O)Nc2ccc(C(F)(F)F)c(Nc3nc(-c4cccnc4)cs3)c2)c(F)c1)N1CCN(C)CC1` [Compound T-21] are 1.36 nM, 2763.22 ng·h/mL, 3891.87 ng·h/mL and 0.71.
For `Cc1ccc(NC(=O)c2ccc(CN3CCN(C)CC3)cc2)cc1Nc1nc(-c2cccnc2)cs1` [Masitinib, reference compound], in data set [1], the “Total drug concentration in brain tissue” value worked out at 356.98 ng·h/mL, the “Total drug concentration in plasma” value is 1771.48 ng·h/mL and the Kp is 0.2. In data set [2], this compound gave an AUC of 1770 ng·h/mL and a Cmax of 321 ng/mL.
